# Assay results from patent US20250386822A1, “Microcapsules controlling the diffusion of an active organic compound” (KAPSERA, priority 2022, published 2025).
# What was measured:
# [1] = Pheromone diffusion duration by SPME pre-concentration and GCMS, closed temperature-controlled chamber (Example 1); format: physicochemical; conditions: pine processionary pheromone; paraffin oil core, 1% pheromone by weight
# Text: FIG. 1: This graph represents the abundance of the main compound of the non-encapsulated pheromone after preconcentration using the Solid Phase Micro-Extraction (SPME) technique, separation of the pheromone compounds by gas chromatography and detection by mass spectrometry (GCMS) in a closed temperature-controlled chamber. FIG. 2: This graph represents the abundance of the main compound of the encapsulated pheromone after preconcentration using the Solid Phase Micro-Extraction (SPME) technique, separation of the pheromone compounds by gas chromatography and detection by mass spectrometry (GCMS) in a closed temperature-controlled chamber. An analytical method was developed to detect the pheromone's main compound. The low quantities of analytes led to the choice of a pre-concentration method known as Solid Phase Micro-Extraction (SPME) and Gas Chromatography-Mass Spectrometry (GCMS).
# [2] = Closed system: study of thermodynamic equilibrium, SPME-GC/MS in sealed 20 mL flasks (Example 2); format: physicochemical; conditions: closed 20 mL flask; European grapevine moth pheromone
# Description: In order to establish the diffusion profiles of the samples at short times and to obtain initial information on any differences between the capsules, a study was carried out in a closed system. The experiment consists of introducing the samples into 20 mL hermetically sealed flasks and following the evolution of the quantity extracted by the SPME fibre over time, until equilibrium is reached. Measurements were initially taken over short periods (one measurement every 45 minutes, corresponding to the analysis time) and then, once the maximum concentration had been reached, measurements were taken at longer intervals to ensure that equilibrium had been reached (one measurement every 2.5 hours). These tests were carried out using the European grapevine moth pheromone, (E)-7-(Z)-9-dodecadienyl acetate (C14H24O2).
duration of the pheromone's diffusion [1],time until equilibrium is reached [2],Compound
less than 10 days,,"CC/C=C\C#CCCCCCCCCCCOC(C)=O [Example 1 non-encapsulated pheromone, Z-13-hexadecen-11-yn-1-yl acetate]"
,> 50 h,"CC/C=C\C=C\CCCCCCOC(C)=O [Example 2 non-encapsulated pheromone, (E)-7-(Z)-9-dodecadienyl acetate]"
